Data on 13 compounds can be found in patent US11358969B2, “Indole AHR inhibitors and uses thereof” (Ikena Oncology, Inc., priority 2017, dated 2022).

Series [1] can be described thus: Mouse Pharmacokinetic Study (Example 1C). The format is in vivo. Conditions: plasma, CD-1 mice; for bioavailability / AUC(0-inf) / AUC(0-t) / clearance / half-life / Vd / Cmax / Tmax: mouse; for Vd: read-out: Vdss. The procedure:
Formulations of compounds set forth in Table 4 were administered intravenously or orally via gavage to CD-1 mice. Typically, at 0.167, 0.5, 1, 2, 4, 6, 12, and 24 hours post-dose, blood was collected and processed to plasma by centrifugation and stored at −80° C. until analysis.
Internal standard was added to each sample prior to protein precipitation with acetonitrile. The precipitates were filtered through a Phree phospholipid removal filter plate and the samples were analyzed by LC/MS/MS. A standard curve was prepared in plasma from typically from 1.0 ng/mL to 3000 ng/mL and processed in the same manner as the samples. Sample analysis was typically performed on a suitable LC/MS/MS system fitted with an analytical UPLC column and compounds eluted from the analytical column with a gradient from 30-95% 0.1% formic acid (v/v) in ACN: 0.1% formic acid (v/v) in water. Mass spectrometric detection of test compound and the internal standard was performed by MRM in positive mode. The pharmacokinetics of each compound were analyzed by Phoenix WinNonlin software (Pharsight, St. Louis, Mo.) via non-compartmental analysis.

The target of another series is T1, AHR (UniProt P35869).
T1 construct: IC50
T1 sequence (P35869 1-848): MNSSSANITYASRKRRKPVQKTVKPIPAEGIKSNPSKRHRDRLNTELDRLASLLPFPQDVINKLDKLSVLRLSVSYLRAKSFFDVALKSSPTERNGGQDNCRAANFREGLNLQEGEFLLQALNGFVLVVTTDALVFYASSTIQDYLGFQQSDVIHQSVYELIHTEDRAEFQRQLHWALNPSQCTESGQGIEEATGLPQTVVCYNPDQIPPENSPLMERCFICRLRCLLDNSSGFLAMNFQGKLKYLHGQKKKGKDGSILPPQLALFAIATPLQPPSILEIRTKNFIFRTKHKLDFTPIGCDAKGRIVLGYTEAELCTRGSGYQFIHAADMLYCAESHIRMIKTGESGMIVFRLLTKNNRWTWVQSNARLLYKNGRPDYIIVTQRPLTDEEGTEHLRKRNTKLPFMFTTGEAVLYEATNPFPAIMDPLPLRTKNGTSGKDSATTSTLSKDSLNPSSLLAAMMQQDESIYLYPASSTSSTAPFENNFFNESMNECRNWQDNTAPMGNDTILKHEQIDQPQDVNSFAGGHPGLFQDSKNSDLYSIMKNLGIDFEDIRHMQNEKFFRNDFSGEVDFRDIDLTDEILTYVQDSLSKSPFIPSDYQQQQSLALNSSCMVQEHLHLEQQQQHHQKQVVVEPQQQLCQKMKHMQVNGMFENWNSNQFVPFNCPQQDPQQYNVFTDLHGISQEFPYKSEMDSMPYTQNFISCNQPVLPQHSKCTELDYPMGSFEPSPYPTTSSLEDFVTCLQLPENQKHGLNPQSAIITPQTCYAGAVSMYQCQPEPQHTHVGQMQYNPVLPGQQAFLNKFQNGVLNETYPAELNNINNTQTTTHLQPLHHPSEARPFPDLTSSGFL
As to the kind of experiment: DRE-Luciferase Reporter Assay (Alternate Method) (Example 1B). It counts as cell-based, murine or human. Particulars: cell line and AHR activating ligand not specified.

Series [2] is described as follows: In Vitro Mouse liver S9 Metabolic Stability Assay (Example 1D). The format is in vitro ADME. Particulars: CD-1 mouse liver S9, 1 μM compound, 1 mg/mL S9 protein, 37° C., NADPH regenerating system, UDPGA, PAPS. The procedure:
CD-1 mouse liver S9 were purchased from Corning or XenoTech LLC or BioreclamationIVT, LLC or WuXi prepared. The cells were stored at −80° C. in a freezer before use. β-Nicotinamide adenine dinucleotide phosphate (NADP), Glucose 6-phosphate (G6P), Glucose 6-phosphate dehydrogenase from yeast (G6PDH), Uridine 5′-diphophoglucuronic acid trisodium salt (UDPGA) and Adenosine 3′-phosphate 5′-phosphosulfate lithium salt hydrate (PAPS) were available commercially from Sigma.
Compounds were diluted in DMSO to make 10 mM stock solution. 5 μL of this stock solution (10 mM, DMSO) was diluted with 45 μL DMSO and 450 μL 50% Methanol/Water to make intermediate stock solution (100 μM, 45% MeOH, 10% DMSO). 50 μL of intermediate stock solution was diluted with 450 μL 100 mM phosphate buffer to make a final stock solution (10 μM, 4.5% MeOH, 1% DMSO). 10 uL of final stock solution was added to 90 uL liver S9 system (final concentration of 1 μM, 0.45% MeOH, 0.1% DMSO).
Test compounds were incubated at 37° C. with liver S9 (pooled from multiple donors) at 1 μM in the presence of a NADPH regenerating system, UDPGA, and PAPS at 1 mg/mL S9 protein. Time samples (0 and 60 minutes) were removed and immediately mixed with cold acetonitrile containing internal standard (IS). Samples were analyzed by LC/MS/MS and disappearance of test compounds were assessed based on peak area ratios of analyte /IS (no standard curve). All samples were injected and analyzed using LC-MS/MS. The analyte/internal standard peak area ratios were converted to percentage remaining (% Remaining) with the following equation: % Remaining at 60 min=(Peak area ratio of analyte to IS at 60 min/Peak area ratio of analyte to IS at t=0)×100%. Table 5. Mouse Stability Data According to Example 1D.

The mark [3] stands for this setting: po, 15 mg/kg, 3.00 mg/mL in DMSO:solutol:water = 5:10:85, solution.

Several values for one entry are separate records, joined by “and”; a condition that tells them apart may be missing. Identical values can stand only once.

In series [1] (po, 30 mg/kg), `Fc1cncc(-c2nc(N[C@@H]3CCc4[nH]c5ccccc5c4C3)n3ncc(Br)c3n2)c1` [I-154, (3R)—N-[8-Bromo-2-(5-fluoro-3-pyridyl)pyrazolo[1,5-a][1,3,5]triazin-4-yl]-2,3,4,9-tetrahydro-1H-carbazol-3-amine] had a bioavailability of 39%, an AUC(0-inf) of 11200 ng·h/mL, an AUC(0-t) of 9360 ng·h/mL and a Cmax of 840 ng/mL. In series [1] (po, 30 mg/kg), the time of peak concentration (Tmax) is 2 h and the half-life was 9.6 h. Besides, in series [1] (iv, 3 mg/kg), the area under the curve AUC(0-inf) was 3030 ng·h/mL, the AUC(0-t) was determined as 2410 ng·h/mL, the clearance worked out at 16.5 mL/min/kg and the half-life was 12 h. Besides, the Vd in series [1] (iv, 3 mg/kg) was found to be 13.7 L/kg. This compound also returned an IC50 at AHR below 500 nM. In addition, the “Mouse S9 Stability: % Remaining After 60 Minutes” value in series [2] was 13%.

For `C[C@@H](O)c1cnn2c(NCCc3c[nH]c4ccccc34)cc(-c3cncc(F)c3)nc12` [I-222a, (1R)-1-[5-(5-Fluoro-3-pyridyl)-7-[2-(1H-indol-3-yl)ethylamino]pyrazolo[1,5-a]pyrimidin-3-yl]ethanol], in series [1] (po, 30 mg/kg), the bioavailability was 16%, the AUC(0-inf) worked out at 2240 ng·h/mL, the exposure AUC(0-t) was 2230 ng·h/mL and the peak concentration (Cmax) was 2870 ng/mL. In series [1] (po, 30 mg/kg), the Tmax turned out to be 0.2 h and the half-life is 1.7 h. In series [1] (iv, 3 mg/kg), this compound showed an area under the curve AUC(0-inf) of 1330 ng·h/mL, an AUC(0-t) of 1330 ng·h/mL, a clearance of 36.9 mL/min/kg and a half-life of 2.4 h. Moreover, the Vd in series [1] (iv, 3 mg/kg) worked out at 1.5 L/kg. At AHR, this compound came in with a concentration for half-maximal inhibition (IC50) below 500 nM. Besides, the “Mouse S9 Stability: % Remaining After 60 Minutes” value in series [2] was 1%.

`CN(C)c1cnn2c(NCCc3c[nH]c4ccccc34)cc(-c3cncc(F)c3)nc12` [I-203, 5-(5-fluoro-3-pyridyl)-N7-[2-(1H-indol-3-yl)ethyl]-N3,N3-dimethyl-pyrazolo[1,5-a]pyrimidine-3,7-diamine]: in series [1] (po, 30 mg/kg), the bioavailability is 12%, the AUC(0-inf) was 657 ng·h/mL, the AUC(0-t) was 656 ng·h/mL and the highest level (Cmax) was 604 ng/mL. In series [1] (po, 30 mg/kg), the Tmax amounted to 0.2 h and the half-life was 0.7 h. In series [1] (iv, 3 mg/kg), this compound gave an AUC(0-inf) of 565 ng·h/mL, an AUC(0-t) of 555 ng·h/mL, a clearance of 88.5 mL/min/kg and a half-life of 2.3 h. In addition, the Vd in series [1] (iv, 3 mg/kg) came to 5.8 L/kg. In addition, the half-maximal inhibitory concentration (IC50) at AHR is below 500 nM. The “Mouse S9 Stability: % Remaining After 60 Minutes” value in series [2] came to 0%.

`Cc1[nH]c2c(F)cc(F)cc2c1CCNc1cc(-c2cncc(F)c2)nc2c(C(C)C)cnn12` [I-107, N-[2-(5,7-Difluoro-2-methyl-1H-indol-3-yl)ethyl]-5-(5-fluoro-3-pyridyl)-3-isopropyl-pyrazolo[1,5-a]pyrimidin-7-amine]: in series [1] (setting [3]), the “Tlast” value is reported as 0 h, the bioavailability amounted to 0% and the time to peak (Tmax) was 0 h. Further, in series [1] (iv, 3 mg/kg), the area under the curve AUC(0-inf) amounted to 92 ng·h/mL, the AUC(0-t) was 88 ng·h/mL, the clearance came out at 540 mL/min/kg and the half-life is 2.18 h. For the same compound, the Vd in series [1] (iv, 3 mg/kg) came out at 43.2 L/kg. For the same compound, the IC50 against AHR was below 500 nM. In addition, in series [2], the “Mouse S9 Stability: % Remaining After 60 Minutes” value is 0%.

`Cc1[nH]c2c(F)cccc2c1CCNc1cc(-c2cncc(F)c2)nc2c(C(F)(F)F)cnn12` [I-235, N-[2-(7-Fluoro-2-methyl-1H-indol-3-yl)ethyl]-5-(5-fluoro-3-pyridyl)-3-(trifluoromethyl)pyrazolo[1,5-a]pyrimidin-7-amine]: the half-inhibitory concentration (IC50) against AHR is below 500 nM. Moreover, in series [2], the “Mouse S9 Stability: % Remaining After 60 Minutes” value was found to be 2%.

`CC(C)c1cnn2c(NCCc3c[nH]c4c(F)cc(F)cc34)nc(-c3cncc(F)c3)nc12` [I-96, N-[2-(5,7-Difluoro-1H-indol-3-yl)ethyl]-2-(5-fluoro-3-pyridyl)-8-isopropyl-pyrazolo[1,5-a][1,3,5]triazin-4-amine]: the half-inhibitory concentration (IC50) against AHR is below 500 nM. Moreover, the “Mouse S9 Stability: % Remaining After 60 Minutes” value in series [2] is 36%.

With `CC(C)c1cnn2c(NC3Cc4ccc(O)cc4C3)cc(-c3cncc(F)c3)nc12` (stereo not shown) [I-109, 2-[[5-(5-Fluoro-3-pyridyl)-3-isopropyl-pyrazolo[1,5-a]pyrimidin-7-yl]amino]indan-5-ol], the IC50 against AHR is below 500 nM. For the same compound, the “Mouse S9 Stability: % Remaining After 60 Minutes” value in series [2] came to 10%.

Regarding `Fc1cncc(-c2cc(NCCc3c[nH]c4ccccc34)n3ncc(C(F)(F)F)c3n2)c1` [I-47, 5-(5-Fluoro-3-pyridyl)-N-[2-(1H-indol-3-yl)ethyl]-3-(trifluoromethyl)pyrazolo[1,5-a]pyrimidin-7-amine], on AHR, the IC50 was below 500 nM. For the same compound, the “Mouse S9 Stability: % Remaining After 60 Minutes” value in series [2] stood at 50%.

For `CC(C)c1cnn2c(NCCc3c[nH]c4ccccc34)cc(-c3ccccc3)nc12` [I-45, N-[2-(1H-indol-3-yl)ethyl]-3-isopropyl-5-phenyl-pyrazolo[1,5-a]pyrimidin-7-amine], the IC50 at AHR is below 500 nM. The “Mouse S9 Stability: % Remaining After 60 Minutes” value in series [2] was found to be 19%.

On AHR, `Cc1cnn2c(NCCc3c[nH]c4cccnc34)cc(-c3cncc(F)c3)nc12` [I-209, 5-(5-Fluoro-3-pyridyl)-3-methyl-N-[2-(1H-pyrrolo[3,2-b]pyridin-3-yl)ethyl]pyrazolo[1,5-a]pyrimidin-7-amine] had a 50% inhibitory concentration (IC50) of 500 to 1000 nM. In addition, the “Mouse S9 Stability: % Remaining After 60 Minutes” value in series [2] stood at 0%.

At AHR, `CN1CCN(c2cc(NCCc3c[nH]c4ccccc34)nc(-c3cncc(F)c3)n2)CC1` [I-67, 2-(5-Fluoro-3-pyridyl)-N-[2-(1H-indol-3-yl)ethyl]-6-(4-methylpiperazin-1-yl)pyrimidin-4-amine] yielded an IC50 below 500 nM. Besides, in series [2], the “Mouse S9 Stability: % Remaining After 60 Minutes” value was 5% and 1%.

With `Cc1[nH]c2c(F)cccc2c1CCNc1nc(-c2cncc(F)c2)nc2ccnn12` [I-200, N-[2-(7-fluoro-2-methyl-1H-indol-3-yl)ethyl]-2-(5-fluoro-3-pyridyl)pyrazolo[1,5-a][1,3,5]triazin-4-amine], the IC50 at AHR was below 500 nM. The “Mouse S9 Stability: % Remaining After 60 Minutes” value in series [2] is given as 0%.

Regarding `Cc1[nH]c2c(F)cccc2c1CCNc1cc(-c2cncc(F)c2)nc2ccnn12` [I-214, N-[2-(7-Fluoro-2-methyl-1H-indol-3-yl)ethyl]-5-(5-fluoro-3-pyridyl)pyrazolo[1,5-a]pyrimidin-7-amine], the 50% inhibitory concentration (IC50) against AHR was below 500 nM. Moreover, the “Mouse S9 Stability: % Remaining After 60 Minutes” value in series [2] turned out to be 0%.
